# Measured values from BindingDB's records for doi:10.3109/14756360902888184 (Dublin City University, 2010).
# Residues, ends and D or L forms follow the SMILES beside them. *: point of attachment. Bz = O=C(c1ccccc1)*
# Target: T1, Secreted cathepsin L 1 (Fasciola hepatica, UniProt Q7JNQ9)
# T1 sequence (Q7JNQ9 whole entry): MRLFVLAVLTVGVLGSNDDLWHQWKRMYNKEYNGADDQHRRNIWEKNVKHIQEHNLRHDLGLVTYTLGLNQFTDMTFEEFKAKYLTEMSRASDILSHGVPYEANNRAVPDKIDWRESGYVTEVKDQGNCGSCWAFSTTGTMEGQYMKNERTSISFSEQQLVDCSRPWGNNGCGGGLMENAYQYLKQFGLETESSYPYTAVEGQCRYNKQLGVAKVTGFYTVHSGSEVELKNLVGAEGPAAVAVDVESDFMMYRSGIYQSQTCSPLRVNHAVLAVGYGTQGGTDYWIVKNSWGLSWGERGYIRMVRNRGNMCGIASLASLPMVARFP
# Experiment: Cathepsin L Enzyme Assay
# Procedure: The protease was activated by the addition of dithiothreitol, ethylenediaminetetraacetic acid (EDTA), and sodium acetate followed by incubation at 37°C for 2 h. Proteinase activity was measured fluorometrically using Z-Phe-Arg-NHMec as substrate. The substrate was stored as a 1 mM stock solution in dimethyl sulfoxide (DMSO). Assays were carried out using a final concentration of 10 μM substrate in 0.1 M sodium acetate containing 0.1 M dithiothreitol and […]. The enzyme and inhibitor were incubated together for 15 min at 37°C, at which stage the substrate was added. The mixture was incubated at 37°C for 30 min. The reaction was stopped by the addition of 150 μL of a 10% acetic acid solution. The amount of 7-amino-4-methylcoumarin (-NHMec) released was measured using a PerkinElmer fluorescence spectrophotometer with excitation set at 370 nm and emission at 440 nm.
row,SMILES,IC50 [µM]
1,CC(C)C[C@H](NC(=O)c1ccccc1C(F)(F)F)C(=O)NCC#N [N-2-trifluoromethylbenzoyl-L-leucine-glycine nitrile (34)],4.1
2,CC(C)C[C@H](NC(=O)c1ccc(C(F)(F)F)cc1)C(=O)NCC#N [N-4-trifluoromethylbenzoyl-L-leucine-glycine nitrile (36)],3.2
3,C[C@H](NC(=O)c1ccccc1F)C(=O)NCC#N [N-2-fluorobenzoyl-L-alanine-glycine nitrile (15)],87.6
4,"CC(C)C[C@H](NC(=O)c1ccc(F)cc1F)C(=O)NCC#N [N-2,4-difluorobenzoyl-L-leucine-glycine nitrile (23)]",5.5
5,"CC(C)C[C@H](NC(=O)c1c(F)ccc(F)c1F)C(=O)NCC#N [N-2,3,6-trifluorobenzoyl-L-leucine-glycine nitrile (28)]",6
6,C[C@H](NC(=O)c1c(F)c(F)c(F)c(F)c1F)C(=O)NCC#N [N-pentafluorobenzoyl-L-alanine-glycine nitrile (16)],68.3
7,CC(C)C[C@H](NC(=O)c1cccc(C(F)(F)F)c1)C(=O)NCC#N [N-3-trifluoromethylbenzoyl-L-leucine-glycine nitrile (35)],9.1
8,C[C@H](NC(=O)c1ccccc1F)C(=O)NCCC#N [N-2-fluorobenzoyl-L-alanine-β-alanine nitrile (19)],> 100
9,"CC(C)C[C@H](NC(=O)c1ccc(F)c(F)c1F)C(=O)NCC#N [N-2,3,4-trifluorobenzoyl-L-leucine-glycine nitrile (29)]",4.1
10,"CC(C)C[C@H](NC(=O)c1cc(F)c(F)cc1F)C(=O)NCC#N [N-2,4,5-trifluorobenzoyl-L-leucine-glycine nitrile]",4.5
11,CC(C)C[C@H](NC(=O)c1ccccc1)C(=O)NCC(=O)O [N-benzoyl-L-leucine-glycine (37)] (Bz-Leu-Gly-OH),10
12,"CC(C)C[C@H](NC(=O)c1cc(F)ccc1F)C(=O)NCC#N [N-2,5-difluorobenzoyl-L-leucine-glycine nitrile (24)]",3.1
13,C[C@H](NC(=O)c1c(F)c(F)c(F)c(F)c1F)C(=O)NCCC#N [N-pentafluorobenzoyl-L-alanine-β-alanine nitrile (20)],> 100
14,"CC(C)C[C@H](NC(=O)c1cc(F)cc(F)c1)C(=O)NCC#N [N-3,5-difluorobenzoyl-L-leucine-glycine nitrile (27)]",3
15,"CC(C)C[C@H](NC(=O)c1cc(F)c(F)c(F)c1)C(=O)NCC#N [N-3,4,5-trifluorobenzoyl-L-leucine-glycine nitrile]",3.4
16,"CC(C)C[C@H](NC(=O)c1ccc(F)c(F)c1)C(=O)NCC#N [N-3,4-difluorobenzoyl-L-leucine-glycine nitrile (26)]",3.1
17,"CC(C)C[C@H](NC(=O)c1c(F)c(F)c(F)c(F)c1F)C(=O)NCC#N [N-2,3,4,5,6-pentafluorobenzoyl-L-leucine-glycine nitrile (33)]",4.4
18,"CC(C)C[C@H](NC(=O)c1cc(F)c(F)c(F)c1F)C(=O)NCC#N [N-2,3,4,5-tetrafluorobenzoyl-L-leucine-glycine nitrile (32)]",3.4
19,"CC(C)C[C@H](NC(=O)c1c(F)cccc1F)C(=O)NCC#N [N-2,6-difluorobenzoyl-L-leucine-glycine nitrile (25)]",3.7
